Source: patent US6407125B1, “Pharmacological agent and method of treatment” (Novactyl, Inc., priority 1995, dated 2002)

Experiments:
[1] = Topical treatment of inflammation associated with acne; format: in vivo; details: 5% to 10% aqueous solution; more than 35 cases, adults and teenagers
From the text: (§1) Furthermore, it is believed that the response of cells to stress, such as exposure to UV radiation, chemicals, bacteria, parasites or fungi is associated with the induction of heat shock proteins.

lymphoma = experiment: Oral treatment of lymphoma and impaired immunity; format: in vivo, human; details: oral 2000 to 4000 mg per day
Experimental: The patient was a person with a history of lymphoma and impaired immunity. The patient had received standard therapy for lymphoma including the CHOP regimen. […] The patient contracted pneumonia three or four times per year and suffered from chronic otitis, chronic sinusitis and chronic Herpes Zoster infections.
The patient was treated with oral picolinic acid starting at 2000 mg per day and increased to 4000 mg per day divided equally in four doses. […] Their immunoglobulin levels rose to 3.3. Their chronic ear and sinus infections and pneumonia resolved concurrently. The Herpes Zoster disappeared.

LoVo cells = experiment: Growth of LoVo cells (total cell protein, cell number, DNA synthesis); format: cell-based, human; details: 3 mM picolinic acid
Experimental: Cells were plated at 1.5×10^5 cells/60-mm dish; 48 hours later, the medium was removed, and new media with or without 3 mM picolinic acid was added. Total cell protein was determined at the indicated times; each point is the average of triplicate measurements from 2 cultures.
In initial experiments to examine the effects of fusaric acid on cell growth and viability, WI-38 and LoVo cells were incubated for 24 to 72 hours in medium with or without various doses of fusaric acid (0.1-1 mM). The growth of both WI-38 and LoVo cells was inhibited by 500 μM fusaric acid in a time and dose dependent manner, as shown below in Table 2.
After 30 hours of treatment with 500 μM fusaric acid, there was a prominent decrease in cell number. DNA synthesis was completely (100%) inhibited by 24 hours. When treated with 500 μM fusaric acid, the majority of the LoVo cells acquired a rounded morphology by 48 hours.
However, after 100 hours, an increase in cell number was noted after 25 additional hours.

[2] = Stability experiments as preservative in foods and on fresh fruits; format: physicochemical; details: in foods and on the surface of fresh fruits
From the text: (§2) The chelating agents of the present invention can be used as preservatives in perishable items such as foods and pharmaceuticals and to prevent fungal growth on the surface of fresh fruits. Presently chemicals such as citrashine orthophenilphenol thiabendazole are used. […] Microbial and fungal growth is inhibited while the food components are unaffected. The preservative of the present invention has less likelihood of toxicity or untoward reactions if ingested that the present, complex chemical antifungals. The preferred concentration of picolinic acid or acceptable derivative for this use is approximately below 0.025% to be classified as a preservative. Of course, greater percentages, e.g. up to 99.9% also would be effective.

recombinant MPS-1 = recombinant MPS-1 (Homo sapiens, UniProt P42677); experiment: Gel shift assay of zinc dependent binding of recombinant MPS-1 to DNA; 65Zn removal from MPS-1; format: biochemical
From the text: MPS-1 is a ubiquitous tumor marker and cell growth stimulator and is described in detail in the inventor's U.S. Pat. No. Re.35,585 (U.S. Pat. No. 5,243,041). MPS-1 has one zinc finger domain of the type CCCC. […] This is detected by a change in the electrophoretic mobility of MPS-1 under non-denaturing conditions. These experiments indicate that picolinic acid and derivatives should remove zinc and denature various types of zinc finger or zinc ring proteins, whether known or heretofore undiscovered, including viral proteins such as nucleocapsid p7 proteins, as will be explained further. Furthermore, the inventor has determined that any chemical compound, whether known or heretofore undiscovered, that will remove the zinc (or other metal) and denature the proteins or that will form a ternary complex (protein-zinc-chelator) can be effective as a therapeutic agent or as an autologous immune response modulator, as will be discussed in greater detail below.

[3] = tested on: Microbial and fungal growth; experiment: Preservative effect on microbial and fungal growth in foods; details: used as preservative
From the text: as §2

[4] = Topical treatment of sunburn; format: in vivo; details: 1%, 5% or 10% picolinic acid in absorption base; over 25 cases
From the text: as §1

[5] = cited from earlier work
[6] = Topical treatment of psoriasis; format: in vivo, human; details: preliminary information
From the text: Several patients suffering from proliferative skin disorders such as psoriasis have been included in a recent ongoing study of the anti-proliferative effects of topical picolinic acid. […] The patients may be treated with a topical application of approximately 5% to 20% picolinic acid, or a derivative thereof, in an absorption base. Alternatively, the patient may be treated with a solution containing approximately 5% to 20% picolinic acid, or derivative, in deionized water. The topical preparation may be applied twice a day or in an alternative pharmacologically acceptable regimen.

human papilloma viruses = experiment: Topical treatment of common warts; format: in vivo; details: 10% to 20% solution or 10% ointment in Aquaphor
Experimental: Five patients ranging in age from 11 years to 52 years and each having at least one common wart induced by human papilloma viruses was treated with a topical preparation of picolinic acid The topical preparation was either solution of 10% to 20% picolinic acid in deionized water or a topical ointment wherein 10% picolinic acid is incorporated into Aquaphor, i.e. 1 g of picolinic acid in 10 g of Aquaphor.

metastatic breast cancer = experiment: Topical treatment of metastatic breast cancer to skin and bone of the skull; format: in vivo, human; details: 10% in Aquaphor, changed twice daily, approximately 35 days
Experimental: A person with metastatic breast cancer to the skin and bone of the skull was treated with a topical preparation of 10% picolinic acid in Aquaphor. The preparation was applied to the cancerous lesions and to a bandage and changed twice daily. The multiple cancer lesions were approximately 1 to 1.5 cm in diameter.

[7] = Nasal spray treatment of upper respiratory infection; format: in vivo, human; details: nasal spray 3 mM in physiologic saline, evening and bedtime, upon arising
Experimental: A college student presented with nasal congestion, slight fever, cough and sore throat. The subject began treatment with nasal spray containing 3 mM picolinic acid in physiologic saline vehicle. The subject used one or two sprays in each nostril after evening meal and before bedtime.

cells = details: cited from earlier work

With `O=C(O)c1ccccn1` [picolinic acid, 2-Pyridine carboxylic acid] the “treatment of inflammation associated with acne” value [1] was “successfully treated”, the “chronic ear and sinus infections and pneumonia” value (lymphoma) was “resolved” and the lymphoma response (lymphoma; approximately two weeks) was “reduction in size of lymph nodes”. For the same compound, the immunoglobulin levels (lymphoma; before treatment 0.6 to 0.7) was 3.3, the “growth of LoVo cells” value (LoVo cells) was “inhibited” and the “stability as a preservative” value [2] was “highly stable”. For the same compound, the “removal of radioactive 65Zn from MPS-1” value (recombinant MPS-1; CCCC zinc finger, change in electrophoretic mobility, non-denaturing conditions) was “remove radioactive 65Zn from MPS-1”, the “zinc dependent binding of recombinant MPS-1 to DNA” value (recombinant MPS-1; gel shift assays) was “inhibit the zinc dependent binding of recombinant MPS-1 to DNA” and the “microbial and fungal growth” value [3] was “inhibited”. For the same compound, the treatment of sunburn [4] was “successfully used”, the solubility in water [5] was “readily soluble in water” and the actinic lesion outcome (10% in Aquaphor daily, approximately three weeks, two patients) was “completely cured”. The “effects on normal skin” value (in vivo) was “without any effects on normal skin”, the regression of psoriasis [6] was “significant effect in inducing regression of the psoriasis” and the wart outcome (human papilloma viruses; after approximately 4 to 6 weeks) was “the warts were gone”. The wart appearance (human papilloma viruses; after seven days, five patients) was “central necrosis of the wart occurred”, the cancer lesion outcome (metastatic breast cancer) was “resolved with scar tissue forming” and the upper respiratory symptoms [7] was “no fever or sore throat symptoms”. For the same compound, the “incorporation of iron into the cells” value (cells) was “inhibits incorporation of iron into the cells” and the “removal of radioiron from the cells” value (cells) was “effectively removes radioiron from the cells”.
